This is an account of results in patent US12285392B2, “Method for modulating metabolism” (Brightseed, Inc., priority 2018, dated 2025).

In data set [1] the target is T1, HNF4α (Homo sapiens, UniProt P41235).
T1 construct: endogenous in cells; host or cells: T6PNE cells
T1 sequence (P41235 1-474): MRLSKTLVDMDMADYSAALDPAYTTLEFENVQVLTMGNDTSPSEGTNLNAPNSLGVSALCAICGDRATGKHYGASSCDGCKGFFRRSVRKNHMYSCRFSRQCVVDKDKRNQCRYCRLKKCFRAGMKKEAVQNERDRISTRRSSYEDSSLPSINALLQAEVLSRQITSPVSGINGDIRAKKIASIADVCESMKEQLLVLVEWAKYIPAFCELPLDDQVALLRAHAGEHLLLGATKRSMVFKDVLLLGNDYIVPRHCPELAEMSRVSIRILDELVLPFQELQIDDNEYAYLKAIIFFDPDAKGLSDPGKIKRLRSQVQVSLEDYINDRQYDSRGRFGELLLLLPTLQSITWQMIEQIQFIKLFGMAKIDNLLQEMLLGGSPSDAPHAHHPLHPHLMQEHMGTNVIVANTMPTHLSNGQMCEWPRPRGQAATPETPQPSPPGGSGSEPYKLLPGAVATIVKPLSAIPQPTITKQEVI
As to the kind of experiment: Insulin promoter activity assay in T6PNE cells (HNF4α activity). The class given is cell-based. The following applies: for HNF4α modulation in screening: screening in the HNF4α assay. As to the method:
Insulin Promoter Activity. T6PNE cells (Kiselyuk, et al. (2012) Chem Biol. 19(7):806-818; Kiselyuk, et al. (2010) J. Biomol. Screen 15(6):663-70) are seeded at 2000 cells per well in 384-well tissue culture plates in the presence of 1 μM tamoxifen and 0.03 mM palmitate. After a 24-hour incubation, a compound or extract of the invention is added to the cells. Forty-eight hours after compound or extract addition, cells are fixed in 4% paraformaldehyde and stained with DAPI. Blue (DAPI) and green (human insulin promoter driving GFP) channels are imaged.
Inhibition of HNF4α GFP Expression. Using the insulin promoter assay described herein, activity of HNF4α was assessed in the presence of BI-6015 (0, 2.5, 5 μM), a known antagonist of HNF4α (Kiselyuk, et al. (2012) Chem. Biol. 19(7):806-818), in combination with N-trans-caffeoyltyramine (0, 5, 10, 20 μM).
Given the role of HNF4α in maintaining a heal thy metabolism in humans, test compounds were screened for activity as HNF4α agonists (either direct or indirect effects). Using a known insulin promoter-reporter assay, Kiselyuk and colleagues (2010. J. Biomol. Screen 15(6):663-70), screened a library of compounds for activity to promote insulin activation. […] The OTC promoter is known to be responsive to HNF4α in transient transfection assays (Inoue, et al. (2002) J. Biol. Chem. 277:25257-65).

Data set [2] has as its system insulin mRNA. Description: Insulin mRNA levels by quantitative PCR. The class given is cell-based. Conditions: FIG. 2. As for the experimental part: (§1) Expression of Insulin and HNF4α. RNA was purified using a RNEASY® chromatographic separation and isolation kits (Qiagen), and converted to cDNA using the gScript™ cDNA SuperMix (Quanta Biosciences). Q-PCR was conducted with cDNA corresponding to 2 μg of RNA using an Opticon Real-Time System (MJ Research) and QPCR SuperMix (BioPioneer). See All mRNA values were normalized to 18S rRNA values and are expressed as fold changes over vehicle-treated control.

In data set [3] the test system is HNF4α mRNA. Description: HNF4α mRNA levels by quantitative PCR. The class given is cell-based. The following applies: FIG. 3. As to the method: as §1
The nature of data set [4]: Bioavailability determination in mice. The class given is in vivo. Conditions: mouse, whole blood, 30 mg/kg; male C57BL/6 mice. As for the experimental part:
Bioavailability Determinations.
An 8 μL aliquot of blood was used for analysis.

Data set [5] relates to HepG2 cells. Description: Lipid clearance in HepG2 cells (steatosis assay, Oil Red O). The class given is cell-based. Conditions: HepG2 liver cells, 20 μM. As to the method: (§2) Lipid Clearance in HepG2 and T6PNE Cells (Steatosis Assay). The steatosis assay was carried out as described (Kiselyuk, et al. (2012) Chem. Biol. 19(7):806-818) with the exception of the drug concentration, which was 20 μM for N-trans-caffeoyltyramine with 0.25 mM palmitate in HepG2 cell lines, and 10 μM of either N-trans-caffeoyltyramine, N-trans-caffeoyltyramine, or pcoumaroyltyramine, with 0.25 mM palmitate in T6PNE cell lines. Steatosis was assessed using the Oil Red 0 Method for Fats kits (Poly Scientific; Warrington, PA), per manufacturer's guidelines. Briefly, frozen tissue slides or fixed cells were incubated in neat propylene glycol for 2 minutes and Oil Red 0 solution for 15 hours for slides or 1 hour for fixed cells, differentiated in 85% propylene glycol solution for 1 minute, washed twice with distilled water and stained in Hematoxylin of 10 seconds. Slides were mounted with glycerin jelly mounting medium.

The nature of data set [6]: pH stability assessment. The class given is physicochemical. Conditions: pH 2, 7.4, 8.5 and 10, 37° C., 0.5 and 72 hours. As for the experimental part: pH Stability Assessment. Individual stock solutions were prepared in DMSO at concentrations of 10 mg/mL. Four different buffer solutions were prepared to achieve solutions with a pH of 2, 7.4, 8.5 and 10. For each pH assay, 5 μL of stock solution was added to 245 μL of buffered solution to a 2 mL tube, vortexed and incubated in a 37° C. water bath. At each timepoint, 50 μL aliquots were taken, neutralized and analyzed via HPLC analysis using a DAD detector at 280 nm. The fold change of the peak area at 280 nm was analyzed for the initial and final timepoint, 0.5 and 72 hours, respectively.

Data set [7] relates to estrogenic activity. Description: Counter-screen for estrogenic activity (E47MER luciferase reporter in HeLa cells). The class given is cell-based, human. Conditions: FIG. 5. As for the experimental part:
Counter-Screen for Estrogenic Activity. Estrogenic activity was monitored by co-transfection of a reporter plasmid containing a multimerized E-box 5′ of a minimal promoter fused to the Firefly luciferase gene (4RTK-luc) with wild-type E47 or E47MER (Kiselyuk, et al. (2010) J. Biomol. Screen 15(6):663-70). HeLa cells were transfected using polyethylenimine, 0.2 μg 4RTK-Luc plasmid and either 0.3 μg of human E47, E47MER or pMSCVhph vector in 50 μl of serum-free Dulbecco's modification of Eagle medium per well. Transfections included Renilla luciferase (pRL-TK) plasmid as a control for transfection efficacy. Transfection conditions were as described in the PPRE-Luc reporter assay of Kiselyuk, et al. ((2010) J. Biomol. Screen 15(6):663-70). Sixteen hours after transfection, culture media were changed and maintained for 48 hours with tamoxifen and/or compound or vehicle (DMSO). Cells were then lysed and assayed for luciferase activity using the Promega DUAL-LUCIFERASE® reporter assay kit (Promega Corp., Madison, WI), and luminescence was measured using the Veritas™ Microplate Luminometer (Turner Biosystems, Sunnyvale, CA). Data were normalized to Renilla luciferase (pRL-TK) and expressed as fold-change over vehicle alone.

Data set [8] relates to T6PNE cells. Description: Lipid clearance in T6PNE cells (steatosis assay). The following applies: 10 μM, 0.25 mM palmitate. The class given is cell-based. As for the experimental part:
T6PNE cells were pretreated for 1 day with 0.06 mM, 0.12 mM or 0.25 mM palmitate at which time 15 μM N-trans-caffeoyltyramine or control (DMSO) was added. Cells were harvested on day 3, 6 and 8 and subjected to staining with Nile Red and Oil Red O. Results are expressed as fold change in Nile Red staining: +palmitate/10% FBS medium (no palmitate)
as §2

Data set [9] addresses T1, HNF4α. Conditions: Kiselyuk et al.; cited from earlier work.
For data set [10], the target named is T1, HNF4α. Conditions: cited from earlier work.

For the compound `Cc1ccc([N+](=O)[O-])cc1S(=O)(=O)n1c(C)nc2ccccc21` [BI-6015, reference compound], the “Effect on N-trans-caffeoyltyramine-mediated increases in insulin expression” value in data set [1] (insulin promoter assay, BI-6015 0, 2.5, 5 μM, FIG. 4) is listed as “inhibited”.
Take `O=C(/C=C\c1ccc(O)c(O)c1)NCCc1ccc(O)cc1` [N-cis-caffeoyltyramine]: the “HNF4α modulation in screening” value in data set [1] is listed as “able to act as HNF4α modulators”.
For `O=C(/C=C/c1ccc(O)cc1)NCCc1ccc(O)c(O)c1` [N-coumaroyldopamine], the Insulin gene expression result in data set [2] was “inactive”. Further, the HNF4α gene expression result in data set [3] is “inactive”.
Usually bioavailability stands for the share of a dose that reaches the circulation, judged against a reference dose that is usually intravenous. Read a low bioavailability as little systemic uptake. `COc1cc(/C=C/C(=O)NCCc2ccc(O)cc2)ccc1O` [N-trans-feruloyltyramine]: the “HNF4α modulation in screening” value in data set [1] was “able to act as HNF4α modulators”. Moreover, in [2], the Insulin gene expression entry is “upregulated”. The compound further returned a bioavailability in [4] of around 7%. In addition, the “Clearing of fats (Oil Red O staining)” value in [5] is “capable of clearing harmful fats from the liver”. For the same compound, in [5] (0.25 mM palmitate), the Accumulation of fats entry is reported as “inhibited accumulation of fats”. The “pH Stability” value in [6] is recorded as “Stable”. For the same compound, in [7], the Estrogenic activity result is recorded as “did not exhibit estrogenic activity”. For the same compound, the HNF4α gene expression entry in [3] is listed as “upregulated”. Besides, the Fat accumulation entry in data set [8] is listed as “inhibition of fat accumulation”.
For `COc1cc(/C=C/C(=O)NCC(O)c2ccc(O)cc2)ccc1O` (stereo not shown) [N-transferuloyloctopamine], the Insulin gene expression result in [2] is “inactive”. The HNF4α gene expression entry in data set [3] was “inactive”.
Consider `COc1cc(/C=C\C(=O)NCCc2ccc(O)cc2)ccc1O` [cis-feruloyltyramine, reference compound], for which the Insulin gene expression result in [2] was “inactive”. In addition, the HNF4α gene expression result in data set [3] was “inactive”.
For `CCN(CCCCc1ccccc1)CCc1ccccc1` [compound 1], the “Insulin activation in insulin promoter-reporter screen” value in data set [9] is listed as “insulin activator”. Moreover, in [10], the “HNF4α agonistic activity in OTC promoter assay” value is “possess HNF4α agonistic activity”.
For `O=C(/C=C/c1ccc(O)cc1)NCC(O)c1ccc(O)cc1` (stereo not shown) [p-coumaroyloctopamine], the Insulin gene expression result in [2] is “inactive”. In addition, the HNF4α gene expression entry in data set [3] is “inactive”.
With `O=C(/C=C/c1ccc(O)cc1)NCCc1ccc(O)cc1` [p-coumaroyltyramine], the “pH Stability” value in data set [6] is recorded as “Acid Stable”.
